Entries after “also recorded” stand apart in the source; their conditions may differ.
What was measured:
[1] = Safety assessment / adverse events in CABG patients (Phase 2); format: in vivo, human; settings: for Patients with one or more adverse events: placebo 29 of 37
Protocol: In addition to the hemodynamic monitoring described above the following tests were performed at screening, on the first post-operative day and at discharge:
4. Any adverse events were recorded throughout by the investigator, who assessed their severity and the relationship of these adverse experiences to the treatment.
11. Adverse Effects. The incidence, severity and drug-relatedness of any adverse effects were tabulated by treatment group by decreasing incidence of such effects in the high dose group. Statistical analysis was not performed.

[2] = system: patients undergoing coronary artery bypass graft (CABG) surgery; test: Transmural and non-transmural myocardial infarction, CK-MB and CK release, clinical outcomes (Phase 2); format: in vivo, human; settings: for Number of patients developing transmural myocardial infarction (new Q-wave and CK-MB ≥ 50 I.U.): placebo 5 of 37; for Number of patients with non-transmural myocardial infarction (CK-MB ≥ 50 I.U.): placebo 17
Protocol: Creatinine phosphokinase MB band (CK-MB) was obtained every 8 hours for 48 hours and when indicated. Radio-nuclide ventriculography for ejection fraction and wall motion score was done about 14 days post-operation and as close to hospital discharge as possible. Other tests and measurements (e.g., chest x-ray, pulmonary artery wedge pressure (PCWP) were performed when clinically indicated for diagnosis or evaluation of myocardial infarction, or congestive heart failure. Timing and dose of all cardiovascular medications within 48 hours after surgery were recorded. The total dose of all analgesics during the 24-hour post-operative period was recorded. Fluid intake and output (e.g., blood replacement and urine output) were recorded for 48 hours. The type and duration of inotropic support and antiarrhythmic intervention required were recorded through 24 hours after surgery. Two-channel Holter recordings were obtained during 3 periods, the eight hours prior to intubation, from intubation through the end of surgery, and for an additional 24-48 hours after surgery. […] For the diagnosis of myocardial infarction, ECG tracings and CK-MB values were assessed centrally by observers blinded to treatment. The difficulty of weaning the patient from bypass, if any, was compared between placebo and treatment groups by noting need for one or more of the following: pacemaker, return to bypass, balloon pump or use of vasopressors. 4. Clinical Outcome. Outcomes of cardiac death, MI, CHF and life-threatening dysrhythmia were compared. Specific endpoints for analysis were combined into a dichotomous endpoint, i.e., at least one of the four events listed above occurs versus none occurs. Fisher's exact test for small samples was used to compare the rates of clinical outcome between the three treatment groups. […] Blood Chemistry--CPK, CK-MB, uric acid, glucose.

[3] = 0.05 mg/kg/min, n=41, ICU + 8 HR
[4] = 0.05 mg/kg/min, n=41, ICU + 16 HR
[5] = 0.05 mg/kg/min, n=41, ICU + 32 HR
[6] = 0.05 mg/kg/min, n=41, ICU + 40 HR
[7] = 0.05 mg/kg/min, n=41, ICU + 48 HR
[8] = 0.05 mg/kg/min, n=41, discharge
[9] = 0.10 mg/kg/min, n=35, ICU + 8 HR
[10] = 0.10 mg/kg/min, n=35, ICU + 16 HR
[11] = 0.10 mg/kg/min, n=35, ICU + 32 HR
[12] = 0.10 mg/kg/min, n=35, ICU + 40 HR
[13] = 0.10 mg/kg/min, n=35, ICU + 48 HR
[14] = 0.10 mg/kg/min, n=35, discharge

With `NC(=O)c1ncn([C@@H]2O[C@H](CO)[C@@H](O)[C@H]2O)c1N` [AICA riboside, 5-amino-1-β-D-ribofuranosyl-imidazole-4-carboxamide] the “Patients with one or more adverse events” value ([1]; 0.05 mg/kg/min) was 28/41, the “Patients with one or more adverse events” value ([1]; 0.1 mg/kg/min) was 30/35 and the “Adverse events in individual patient” value ([1]; 0.38 mg/kg/min, patient A5) was “no events other than S-T segment elevation on the ECG post-bypass”. For the same compound, the “Frequency of adverse events vs placebo” value ([1]; drug-treated patients, 0.05 and 0.1 mg/kg/min) was “no evidence that any of these events occurred more frequently in drug-treated patients compared with placebo”, the Tolerability ([1]; first patients, 0.19 or 0.38 mg/kg/min) was “well tolerated” and the Serious adverse experiences ([1]; first six patients, 0.19 or 0.38 mg/kg/min) was “no serious adverse experiences”. For the same compound, the “Serum/urinary uric acid and crystalluria” value ([1]; five drug-treated patients, 0.19 or 0.38 mg/kg/min) was “significant hyperuricemia and elevated urinary uric acid levels with crystalluria”, the Urine coloration ([1]; five patients at 0.19 or 0.38 mg/kg/min, patient A14 at 0.05 mg/kg/min) was “same green coloration; also recorded: clear, green coloration” and the “CK, mean baseline” value ([2]; 0.05 mg/kg/min group, n=41) was 89.2 +/- 30.9 U/L. For the same compound, the “CK-MB, mean baseline” value ([2]; 0.05 mg/kg/min group, n=41) was 0.2 +/- 0.1 U/L, the “CK-MB, mean change from baseline” value ([2]; 0.05 mg/kg/min, n=41, 24 HR POST) was 23.5 +/- 5.0 U/L and the “CK, mean change from baseline” value ([2]; 0.05 mg/kg/min, n=41, ICU + 0) was 346.2 +/- 45.3 U/L. For the same compound, the “CK-MB, mean change from baseline” value ([2]; 0.05 mg/kg/min, n=41, ICU + 0) was 24.5 +/- 2.7 U/L, the “CK, mean change from baseline” value [2, 3] was 839.2 +/- 89.3 U/L and the “CK-MB, mean change from baseline” value [2, 3] was 37.1 +/- 5.1 U/L. For the same compound, the “CK, mean change from baseline” value [2, 4] was 1040.6 +/- 120.3 U/L, the “CK-MB, mean change from baseline” value [2, 4] was 30.8 +/- 4.9 U/L and the “CK, mean change from baseline” value [2, 5] was 874.7 +/- 126.3 U/L. The “CK-MB, mean change from baseline” value [2, 5] was 9.2 +/- 2.5 U/L, the “CK, mean change from baseline” value [2, 6] was 806.6 +/- 145.6 U/L and the “CK-MB, mean change from baseline” value [2, 6] was 7.7 +/- 2.2 U/L. The “CK, mean change from baseline” value [2, 7] was 784.0 +/- 149.9 U/L, the “CK-MB, mean change from baseline” value [2, 7] was 3.9 +/- 1.5 U/L and the “CK, mean change from baseline” value [2, 8] was 87.8 +/- 46.6 U/L. The “CK-MB, mean change from baseline” value [2, 8] was 0.0 +/- 0.1 U/L, the “Number of patients developing transmural myocardial infarction (new Q-wave and CK-MB ≥ 50 I.U.)” value ([2]; 0.05 mg/kg/min, n=41, p=0.42) was 2 patients and the “Number of patients with non-transmural myocardial infarction (CK-MB ≥ 50 I.U.)” value ([2]; 0.05 mg/kg/min, n=41, p=0.10) was 13 patients. For the same compound, the “Incidence of transmural myocardial infarction” value ([2]; 0.05 mg/kg/min, n=41, placebo […], p=0.42) was 4.9%, the “CK, mean baseline” value ([2]; 0.10 mg/kg/min group, n=35) was 66.6 +/- 11.3 U/L and the “CK-MB, mean baseline” value ([2]; 0.10 mg/kg/min group, n=35) was 0.1 +/- 0.1 U/L. For the same compound, the “CK-MB, mean change from baseline” value ([2]; 0.10 mg/kg/min, n=35, 24 HR POST) was 21.1 +/- 5.3 U/L, the “CK, mean change from baseline” value ([2]; 0.10 mg/kg/min, n=35, ICU + 0) was 386.1 +/- 51.8 U/L and the “CK-MB, mean change from baseline” value ([2]; 0.10 mg/kg/min, n=35, ICU + 0) was 25.2 +/- 2.3 U/L. For the same compound, the “CK, mean change from baseline” value [2, 9] was 869.6 +/- 143.7 U/L, the “CK-MB, mean change from baseline” value [2, 9] was 34.3 +/- 6.2 U/L and the “CK, mean change from baseline” value [2, 10] was 891.0 +/- 148.3 U/L. For the same compound, the “CK-MB, mean change from baseline” value [2, 10] was 25.9 +/- 6.7 U/L, the “CK, mean change from baseline” value [2, 11] was 894.0 +/- 142.9 U/L and the “CK-MB, mean change from baseline” value [2, 11] was 12.8 +/- 4.5 U/L. The “CK, mean change from baseline” value [2, 12] was 641.7 +/- 119.7 U/L, the “CK-MB, mean change from baseline” value [2, 12] was 7.1 +/- 3.0 U/L and the “CK, mean change from baseline” value [2, 13] was 499.8 +/- 100.5 U/L. The “CK-MB, mean change from baseline” value [2, 13] was 3.5 +/- 2.1 U/L, the “CK, mean change from baseline” value [2, 14] was 31.9 +/- 22.0 U/L and the “CK-MB, mean change from baseline” value [2, 14] was 0.4 +/- 0.4 U/L. For the same compound, the “Number of patients developing transmural myocardial infarction (new Q-wave and CK-MB ≥ 50 I.U.)” value ([2]; 0.10 mg/kg/min, n=35, p=0.42) was 2 patients, the “Non-transmural MI, combined treatment groups versus placebo” value ([2]; 0.05 + 0.1 mg/kg/min combined, p=0.046) was “statistically significant” and the “Number of patients with non-transmural myocardial infarction (CK-MB ≥ 50 I.U.)” value ([2]; high dose (0.1 mg/kg/min; Table 6 head prints 0.01), n=35, p=0.10) was 8 patients. The “Incidence of non-transmural myocardial infarction (CK-MB ≥ 50 I.U.)” value ([2]; high dose (0.1 mg/kg/min; Table 6 head prints 0.01), n=35, placebo 47%, p=0.10) was 23.5%, the “Rate of perioperative infarction, all drug-treated patients vs placebo” value ([2]; including first 5 which received higher doses, p<0.05) was “statistically significant reduction” and the “Other outcomes (CHF requiring balloon pump or LVAD, cardiac death, life-threatening arrhythmia)” value ([2]; three groups, exception patient A39 (intra-aortic balloon pump)) was “none of the other outcomes being evaluated”. The “Total CK levels compared with placebo; same trend for CK-MB release” value ([2]; treated groups, across all patients) was “trend toward a reduction in total CK levels in the treated groups compared with placebo” and the “Reduction in the frequency of post-operative myocardial infarctions” value ([2]; treatment groups vs placebo, p=0.15, not significant) was 64%.
